Experimental data taken from patent US8247556B2, “Method for preparing 6-substituted-7-aza-indoles” (Amgen Inc., priority 2005, dated 2012).

Tests used:
[1] = system: VEGF-stimulated HUVEC proliferation (Human Umbilical Vein Endothelial cells); experiment: HUVEC Proliferation Assay; format: cell-based; details: VEGF 50 ng/mL, 72 h, CyQuant fluorescent dye, read-out: inhibited VEGF-stimulated HUVEC proliferation at a level
Method: Human Umbilical Vein Endothelial cells are purchased from Clonetics, Inc., as cryopreserved cells harvested from a pool of donors. These cells, at passage 1, are thawed and expanded in EBM-2 complete medium, until passage 2 or 3. The cells are trypsinized, washed in DMEM+10% FBS+antibiotics, and spun at 1000 rpm for 10 min. Prior to centrifugation of the cells, a small amount is collected for a cell count. After centrifugation, the medium is discarded, and the cells are resuspended in the appropriate volume of DMEM+10% FBS+antibiotics to achieve a concentration of 3×10^5 cells/mL. Another cell count is performed to confirm the cell concentration. The cells are diluted to 3×10^4 cells/mL in DMEM+10% FBS+antibiotics, and 100 μL of cells are added to a 96-well plate. The cells are incubated at 37° C. for 22 h.
Prior to the completion of the incubation period, compound dilutions are prepared. Five-point, five-fold serial dilutions are prepared in DMSO, at concentrations 400-fold greater than the final concentrations desired. 2.5 μL of each compound dilution are diluted further in a total of 1 mL DMEM+10% FBS+antibiotics (400× dilution). Medium containing 0.25% DMSO is also prepared for the 0 μM compound sample. At the 22 h time point, the medium is removed from the cells, and 100 μL of each compound dilution is added. The cells are incubated at 37° C. for 2-3 h.
During the compound pre-incubation period, the growth factors are diluted to the appropriate concentrations. Solutions of DMEM+10% FBS+antibiotics, containing either VEGF or bFGF at the following concentrations: 50, 10, 2, 0.4, 0.08, and 0 ng/mL are prepared. For the compound-treated cells, solutions of VEGF at 550 ng/mL or bFGF at 220 ng/mL for 50 ng/mL or 20 ng/mL final concentrations, respectively, are prepared since 10 μL of each will be added to the cells (110 μL final volume). At the appropriate time after adding the compounds, the growth factors are added. VEGF is added to one set of plates, while bFGF is added to another set of plates. For the growth factor control curves, the media on wells B4-G6 of plates 1 and 2 are replaced with media containing VEGF or bFGF at the varying concentrations (50-0 ng/mL). The cells are incubated at 37° C. for an additional 72 h.
At the completion of the 72 h incubation period, the medium is removed, and the cells are washed twice with PBS. After the second wash with PBS, the plates are tapped gently to remove excess PBS, and the cells are placed at −70° C. for at least 30 min. The cells are thawed and analyzed using the CyQuant fluorescent dye (Molecular Probes C-7026), following the manufacturer's recommendations. The plates are read on a Victor/Wallac 1420 workstation at 485 nm/530 nm (excitation/emission). Raw data are collected and analyzed using a 4-parameter fit equation in XLFit. IC50 values are then determined.

CYP 2D6 = target: T1, CYP 2D6 (Homo sapiens, UniProt P10635); experiment: Human Liver Microsome CYP 2D6 Inhibition; format: in vitro ADME; details: human liver microsomes, bufuralol substrate; read-out: inhibited CYP2D6 microsomes, IC50
T1 construct: followed by 555.6 ml of 20 mg/mL HLM (BD Gentest); tissue BD Gentest; host or cells: human liver microsomes
T1 sequence (P10635 whole entry): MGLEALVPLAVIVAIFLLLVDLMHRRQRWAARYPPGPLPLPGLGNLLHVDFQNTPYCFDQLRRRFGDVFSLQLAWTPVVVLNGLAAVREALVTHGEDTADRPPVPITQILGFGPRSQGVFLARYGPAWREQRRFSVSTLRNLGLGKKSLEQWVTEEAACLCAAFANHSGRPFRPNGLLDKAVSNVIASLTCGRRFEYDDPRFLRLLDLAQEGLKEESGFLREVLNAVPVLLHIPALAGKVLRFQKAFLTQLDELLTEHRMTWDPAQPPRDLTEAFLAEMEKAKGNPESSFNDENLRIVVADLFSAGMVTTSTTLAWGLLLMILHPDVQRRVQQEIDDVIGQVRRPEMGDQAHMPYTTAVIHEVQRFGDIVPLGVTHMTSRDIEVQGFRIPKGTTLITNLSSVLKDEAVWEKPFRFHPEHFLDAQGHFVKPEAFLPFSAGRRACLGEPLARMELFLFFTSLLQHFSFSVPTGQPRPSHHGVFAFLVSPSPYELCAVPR
Method: Determining the IC-50 for Human Liver Microsome CYP 2D6 Inhibition
Postassium Phosphate Buffer pH 7.4 (39.333 mL) is chilled in an ice bath and added to a 50 ml plastic tube. A 3.2 mM bufuralol solution is prepared. 111.1 ul of 3.2 mM bufuralol is added to the buffer followed by 555.6 ml of 20 mg/mL HLM (BD Gentest). The incubation mixture was gently inverted and equilibrated at 37° C. for 5 min. A stock inhibitor solution is prepared, such as in DMSO. Incubation mixture (801 ul) is added into 96-well, 1.2 mL plastic tubes. Inhibitor is added at various concentrations (e.g. 30 μM to […]). The tubes are sealed and mix by inverting 5 times gently. The incubation mixture containing inhibitor (270 μL) is added by aliquot into wells of a 1 mL, 96-well block (duplicate). The block is placed into a 37° C. water bath and equilibrated for 3 minutes. 10 mM NADPH (30 ml) is added to all samples. After 5 min, the reactions are stopped by adding 300 ml of Quench Solution [0.1% TFA in CH3CN]. 1′-OH-bufuralol-d9 (750 ng/mL 30 μL) is added, the block is gently vortexed then centrifuged at 3000 rpm for 10 min at 4° C. 50 μL of supernatant from all samples is added by aliquot into a shorter, 96-well block. The aliquoted supernatants are pooled with other assay(s) and HPLC Grade Water (50 μL) is added to all samples. After covering and shaking by vortex gently for 2 minutes, the solutions were analyzed by LC-MS (API 3000, 5% MeOH w/0.1% AcOH to 95% MeOH w/0.1% AcOH). 500 nM quinidine is used as a control.

SMILES | IC50 [1] [µM] | IC50 (CYP 2D6) [µM]
CC1(C)CN(C(=O)C2CCCO2)Cc2cc(NC(=O)c3cccnc3NCc3ccnc4[nH]ccc34)ccc21 (single isomer, unassigned) [Example 14, N-{4,4-Dimethyl-2-[(2R*)-tetrahydrofuran-2-ylcarbonyl]-1,2,3,4-tetrahydroisoquinolin-7-yl}-2-[(1H-pyrrolo[2,3-b]pyridin-4-ylmethyl)amino]nicotinamide] | < 0.5 | > 20
CC(=O)N1CC(C)(C)c2ccc(NC(=O)c3cccnc3NCc3ccnc4[nH]ccc34)cc21 [Example 6, N-(1-Acetyl-3,3-dimethyl-2,3-dihydro-1H-indol-6-yl)-2-[(1H-pyrrolo[2,3-b]pyridin-4-ylmethyl)amino]nicotinamide] | < 0.5 | > 20
CC(=O)N1CC2(CC2)c2ccc(NC(=O)c3cccnc3NCc3ccnc4[nH]ccc34)cc21 [Example 7] | < 0.5 | > 20
CC1(C)CC(=O)Nc2cc(NC(=O)c3cccnc3NCc3ccnc4[nH]ccc34)ccc21 [Example 12, N-(4,4-Dimethyl-2-oxo-1,2,3,4-tetrahydroquinolin-7-yl)-2-[(1H-pyrrolo[2,3-b]pyridin-4-ylmethyl)amino]nicotinamide] | < 0.5 | > 20
CC(=O)N1Cc2cc(NC(=O)c3cccnc3NCc3ccnc4[nH]ccc34)ccc2C(C)(C)C1 [Example 13, N-(2-Acetyl-4,4-dimethyl-1,2,3,4-tetrahydroisoquinolin-7-yl)-2-[(1H-pyrrolo[2,3-b]pyridin-4-ylmethyl)amino]nicotinamide] | < 0.5 | > 20
CC1(C)CN(C(=O)CN)Cc2cc(NC(=O)c3cccnc3NCc3ccnc4[nH]ccc34)ccc21 [Example 15, N-(2-Glycyl-4,4-dimethyl-1,2,3,4-tetrahydroisoquinolin-7-yl)-2-[(1H-pyrrolo[2,3-b]pyridin-4-ylmethyl)amino]nicotinamide] |  | > 20
CC1(C)CN(C(=O)CN)c2cc(NC(=O)c3cccnc3NCc3ccnc4[nH]ccc34)ccc21 [Example 21, N-(1-Glycyl-3,3-dimethyl-2,3-dihydro-1H-indol-6-yl)-2-[(1H-pyrrolo[2,3-b]pyridin-4-ylmethyl)amino]nicotinamide] | < 0.5 | > 20
CC(=O)N1CC(C)(C)c2ccc(NC(=O)c3cccnc3NCc3ccnc4c3CCN4)cc21 [Example 29, N-(1-Acetyl-3,3-dimethyl-2,3-dihydro-1H-indol-6-yl)-2-[(2,3-dihydro-1H-pyrrolo[2,3-b]pyridin-4-ylmethyl)amino]nicotinamide] | < 0.5 | > 20
CC1(C)CCNc2cc(NC(=O)c3cccnc3NCc3ccnc4c3CCN4)ccc21 [Example 31, 2-[(2,3-Dihydro-1H-pyrrolo[2,3-b]pyridin-4-ylmethyl)amino]-N-(4,4-dimethyl-1,2,3,4-tetrahydroquinolin-7-yl)nicotinamide] | < 0.5 | > 20
CC1(C)CNCc2cc(NC(=O)c3cccnc3NCc3c[nH]c4ncccc34)ccc21 [Example 38, N-(4,4-Dimethyl-1,2,3,4-tetrahydroisoquinolin-7-yl)-2-[(1H-pyrrolo[2,3-b]pyridin-3-ylmethyl)amino]nicotinamide] | < 0.5 | > 20
CC1(C)CCNc2cc(NC(=O)c3cccnc3NCc3c[nH]c4ncccc34)ccc21 [Example 40, N-(4,4-Dimethyl-1,2,3,4-tetrahydro-quinolin-7-yl)-2-[(1H-pyrrolo[2,3-b]pyridin-3-ylmethyl)-amino]-nicotinamide] | < 0.5 | > 20
CC(=O)N1CCC(C)(C)c2ccc(NC(=O)c3cccnc3NCc3ccnc4[nH]ccc34)cc21 [Example 52, N-(1-Acetyl-4,4-dimethyl-1,2,3,4-tetrahydro-quinolin-7-yl)-2-[(1H-pyrrolo[2,3-b]pyridin-4-ylmethyl)-amino]-nicotinamide] | < 0.5 | > 20
CC1(C)CN(S(C)(=O)=O)c2cc(NC(=O)c3cccnc3NCc3ccnc4[nH]ccc34)ccc21 [Example 61, N-(1-Methanesulfonyl-3,3-dimethyl-2,3-dihydro-1H-indol-6-yl)-2-[(1H-pyrrolo[2,3-b]pyridin-4-ylmethyl)-amino]-nicotinamide] | < 0.5 | > 20
[2H]C1([2H])CC(C)(C)c2ccc(NC(=O)c3cccnc3NCc3ccnc4[nH]ccc34)cc2N1 [Example 69, N-(2,2-Dideutero-4,4-dimethyl-1,2,3,4-tetrahydro-quinolin-7-yl)-2-[(1H-pyrrolo[2,3-b]pyridin-4-ylmethyl)-amino]-nicotinamide] | < 0.5 | > 20
Cc1nc2cc(NC(=O)c3cccnc3NCc3ccnc4[nH]ncc34)ccc2s1 [Example 70, N-(2-Methyl-1,3-benzothiazol-5-yl)-2-((1H-pyrazolo[3,4-b]pyridin-4-ylmethyl)amino)-3-pyridinecarboxamide] | < 0.5 | > 20
CC(=O)N1CC(C)(C)c2ccc(NC(=O)c3cc(F)cnc3NCc3ccnc4[nH]ccc34)cc21 [Example 80, N-(1-acetyl-3,3-dimethyl-2,3-dihydro-1H-indol-6-yl)-5-fluoro-2-((1H-pyrrolo[2,3-b]pyridin-4-ylmethyl)amino)-3-pyridinecarboxamide] | < 0.5 | > 20
CC1(C)CC(=O)Nc2cc(NC(=O)c3cc(F)cnc3NCc3ccnc4[nH]ccc34)ccc21 [Example 81, N-(4,4-dimethyl-2-oxo-1,2,3,4-tetrahydro-7-quinolinyl)-5-fluoro-2-((1H-pyrrolo[2,3-b]pyridin-4-ylmethyl)amino)-3-pyridinecarboxamide] | < 0.5 | > 20
CC1(C)CCNc2cc(NC(=O)c3cc(F)cnc3NCc3ccnc4[nH]ccc34)ccc21 [Example 82, N-(4,4-dimethyl-1,2,3,4-tetrahydro-7-quinolinyl)-5-fluoro-2-((1H-pyrrolo[2,3-b]pyridin-4-ylmethyl)amino)-3-pyridinecarboxamide] | < 0.5 | > 20
Cc1nc2cc(NC(=O)c3cc(F)cnc3NCc3ccnc4[nH]ncc34)ccc2s1 [Example 116, 5-fluoro-N-(2-methyl-1,3-benzothiazol-5-yl)-2-((1H-pyrazolo[3,4-b]pyridin-4-ylmethyl)amino)-3-pyridinecarboxamide] | < 0.5 | > 20
